In patent publication US20250127170A1, “TRIAZINE HERBICIDAL COMPOUNDS” (SYNGENTA CROP PROTECTION AG, priority 2021, published 2025):

Columns and labels:
Type in all cases: in vivo
Conditions in all cases: 312 h, evaluated after 13 days, 100=total damage to plant, 0=no damage to plant
[1] = tested on: Euphorbia heterophylla (EPHHL); experiment: Pre-emergence biological efficacy
Method: (§1) Seeds of weeds and/or crops were sown in standard soil in pots (Amaranthus palmeri (AMAPA), Lolium perenne (LOLPE), Euphorbia heterophylla (EPHHL), Ipomoea hederacea (IPOHE), Setaria faberi (SETFA), Echinochloa crus-galli (ECHCG)). After cultivation for one day under controlled conditions in a glasshouse (at 24/19° C., day/night; 16 hours light), the plants were sprayed with an aqueous spray solution derived from the formulation of the technical active ingredient in a small amount of acetone and a special solvent and emulsifier mixture referred to as IF50 (11.12% Emulsogen EL360™+44.44% N-methylpyrrolidone+44.44% Dowanol DPM glycol ether), to create a 50 g/l solution which was then diluted using 0.2% Genapol XO80 as diluent to give the desired final dose of test compound.
(§2) The test plants were then grown under controlled conditions in the glasshouse (at 24/18° C., day/night; 15 hours light; 50% humidity) and watered twice daily. After 13 days the test was evaluated (100=total damage to plant; 0=no damage to plant).

[2] = tested on: Echinochloa crus-galli (ECHCG); experiment: Pre-emergence biological efficacy
Method: as §1, §2

Setaria faberi (SETFA) [3] = experiment: Pre-emergence biological efficacy
Method: as §1, §2

[4] = tested on: Amaranthus palmeri (AMAPA); experiment: Pre-emergence biological efficacy
Method: as §1, §2

Lolium perenne (LOLPE) [5] = experiment: Pre-emergence biological efficacy
Method: as §1, §2

[6] = tested on: Ipomoea hederacea (IPOHE); experiment: Pre-emergence biological efficacy
Method: as §1, §2

[7] = tested on: Euphorbia heterophylla (EPHHL); experiment: Post-emergence biological efficacy
Method: as §1, with “Chenopodium album (CHEAL),” for “Lolium perenne (LOLPE),”, “(IPOHE), Eleusine indica (ELEIN), Lolium perenne (LOLPE), Digitaria sanguinalis (DIGSA),” for “(IPOHE),”, “14 days” for “one day”, “compound. The test plants were then grown under controlled conditions in the glasshouse (at 24/18° C., day/night; 15 hours light; 50% humidity) and watered twice daily. After 13 days the test was evaluated (100=total damage to plant; 0=no damage to plant).” for “compound.”

[8] = tested on: Echinochloa crus-galli (ECHCG); experiment: Post-emergence biological efficacy
Method: as §1, with “Chenopodium album (CHEAL),” for “Lolium perenne (LOLPE),”, “(IPOHE), Eleusine indica (ELEIN), Lolium perenne (LOLPE), Digitaria sanguinalis (DIGSA),” for “(IPOHE),”, “14 days” for “one day”, “compound. The test plants were then grown under controlled conditions in the glasshouse (at 24/18° C., day/night; 15 hours light; 50% humidity) and watered twice daily. After 13 days the test was evaluated (100=total damage to plant; 0=no damage to plant).” for “compound.”

Setaria faberi (SETFA) [9] = experiment: Post-emergence biological efficacy
Method: as §1, with “Chenopodium album (CHEAL),” for “Lolium perenne (LOLPE),”, “(IPOHE), Eleusine indica (ELEIN), Lolium perenne (LOLPE), Digitaria sanguinalis (DIGSA),” for “(IPOHE),”, “14 days” for “one day”, “compound. The test plants were then grown under controlled conditions in the glasshouse (at 24/18° C., day/night; 15 hours light; 50% humidity) and watered twice daily. After 13 days the test was evaluated (100=total damage to plant; 0=no damage to plant).” for “compound.”

[10] = tested on: Amaranthus palmeri (AMAPA); experiment: Post-emergence biological efficacy
Method: as §1, with “Chenopodium album (CHEAL),” for “Lolium perenne (LOLPE),”, “(IPOHE), Eleusine indica (ELEIN), Lolium perenne (LOLPE), Digitaria sanguinalis (DIGSA),” for “(IPOHE),”, “14 days” for “one day”, “compound. The test plants were then grown under controlled conditions in the glasshouse (at 24/18° C., day/night; 15 hours light; 50% humidity) and watered twice daily. After 13 days the test was evaluated (100=total damage to plant; 0=no damage to plant).” for “compound.”

Eleusine indica (ELEIN) = experiment: Post-emergence biological efficacy
Method: as §1, with “Chenopodium album (CHEAL),” for “Lolium perenne (LOLPE),”, “(IPOHE), Eleusine indica (ELEIN), Lolium perenne (LOLPE), Digitaria sanguinalis (DIGSA),” for “(IPOHE),”, “14 days” for “one day”, “compound. The test plants were then grown under controlled conditions in the glasshouse (at 24/18° C., day/night; 15 hours light; 50% humidity) and watered twice daily. After 13 days the test was evaluated (100=total damage to plant; 0=no damage to plant).” for “compound.”

[11] = tested on: Digitaria sanguinalis (DIGSA); experiment: Post-emergence biological efficacy
Method: as §1, with “Chenopodium album (CHEAL),” for “Lolium perenne (LOLPE),”, “(IPOHE), Eleusine indica (ELEIN), Lolium perenne (LOLPE), Digitaria sanguinalis (DIGSA),” for “(IPOHE),”, “14 days” for “one day”, “compound. The test plants were then grown under controlled conditions in the glasshouse (at 24/18° C., day/night; 15 hours light; 50% humidity) and watered twice daily. After 13 days the test was evaluated (100=total damage to plant; 0=no damage to plant).” for “compound.”

[12] = tested on: Chenopodium album (CHEAL); experiment: Post-emergence biological efficacy
Method: as §1, with “Chenopodium album (CHEAL),” for “Lolium perenne (LOLPE),”, “(IPOHE), Eleusine indica (ELEIN), Lolium perenne (LOLPE), Digitaria sanguinalis (DIGSA),” for “(IPOHE),”, “14 days” for “one day”, “compound. The test plants were then grown under controlled conditions in the glasshouse (at 24/18° C., day/night; 15 hours light; 50% humidity) and watered twice daily. After 13 days the test was evaluated (100=total damage to plant; 0=no damage to plant).” for “compound.”

Lolium perenne (LOLPE) [13] = experiment: Post-emergence biological efficacy
Method: as §1, with “Chenopodium album (CHEAL),” for “Lolium perenne (LOLPE),”, “(IPOHE), Eleusine indica (ELEIN), Lolium perenne (LOLPE), Digitaria sanguinalis (DIGSA),” for “(IPOHE),”, “14 days” for “one day”, “compound. The test plants were then grown under controlled conditions in the glasshouse (at 24/18° C., day/night; 15 hours light; 50% humidity) and watered twice daily. After 13 days the test was evaluated (100=total damage to plant; 0=no damage to plant).” for “compound.”

[14] = tested on: Ipomoea hederacea (IPOHE); experiment: Post-emergence biological efficacy
Method: as §1, with “Chenopodium album (CHEAL),” for “Lolium perenne (LOLPE),”, “(IPOHE), Eleusine indica (ELEIN), Lolium perenne (LOLPE), Digitaria sanguinalis (DIGSA),” for “(IPOHE),”, “14 days” for “one day”, “compound. The test plants were then grown under controlled conditions in the glasshouse (at 24/18° C., day/night; 15 hours light; 50% humidity) and watered twice daily. After 13 days the test was evaluated (100=total damage to plant; 0=no damage to plant).” for “compound.”

Row | SMILES | pest or weed control at 250 g/ha [1] | pest or weed control at 250 g/ha [2] | pest or weed control at 250 g/ha (Setaria faberi (SETFA) [3]) | pest or weed control at 250 g/ha [4] | pest or weed control at 250 g/ha (Lolium perenne (LOLPE) [5]) | pest or weed control at 250 g/ha [6] | pest or weed control at 250 g/ha [7] | pest or weed control at 250 g/ha [8] | pest or weed control at 250 g/ha (Setaria faberi (SETFA) [9]) | pest or weed control at 250 g/ha [10] | pest or weed control at 250 g/ha (Eleusine indica (ELEIN)) | pest or weed control at 250 g/ha [11] | pest or weed control at 250 g/ha [12] | pest or weed control at 250 g/ha (Lolium perenne (LOLPE) [13]) | pest or weed control at 250 g/ha [14]
1 | CCOC(=O)C[C@H](C)OC(=O)c1cc(-n2c(=O)n(C)c(=S)n(C)c2=O)ccc1Cl [Compound 1-360 (S-enantiomer), [(1S)-3-ethoxy-1-methyl-3-oxo-propyl] 2-chloro-5-(3,5-dimethyl-2,6-dioxo-4-thioxo-1,3,5-triazinan-1-yl)benzoate] | 30% | 80% | 90% | 80% | 70% | 20% | 90% | 100% | 100% | 100% | 90% | 100% | 100% | 100% | 70%
2 | CCOC(=O)C[C@H](C)OC(=O)c1cc(-n2c(=O)n(C)c(=S)n(C)c2=O)c(F)cc1Cl [Compound 1-369 (S-enantiomer), [(1S)-3-ethoxy-1-methyl-3-oxo-propyl]-2-chloro-5-(3,5-dimethyl-2,6-dioxo-4-thioxo-1,3,5-triazinan-1-yl)-4-fluoro-benzoate] | 90% | 100% | 100% | 100% | 90% | 50% | 100% | 100% | 100% | 100% | 100% | 100% | 100% | 100% | 90%
3 | CCOC(=O)CC(C)N(C)C(=O)c1cc(-n2c(=O)n(C)c(=S)n(C)c2=O)c(F)cc1Cl (stereo not drawn) [Compound 1-405, Ethyl 3-[[2-chloro-5-(3,5-dimethyl-2,6-dioxo-4-thioxo-1,3,5-triazinan-1-yl)-4-fluoro-benzoyl]-methyl-amino]butanoate] | 0% | 0% | 0% | 0% | 0% | 0% | 20% | 10% | 10% | 60% | 50% | 40% | 60% | 10% | 40%
4 | CCOC(=O)CC(CC)OC(=O)c1cc(-n2c(=O)n(C)c(=S)n(C)c2=O)c(F)cc1Cl (stereo not drawn) [Compound 1-420, (3-Ethoxy-1-ethyl-3-oxo-propyl) 2-chloro-5-(3,5-dimethyl-2,6-dioxo-4-thioxo-1,3,5-triazinan-1-yl)-4-fluoro-benzoate] | 100% | 100% | 100% | 100% | 90% | 30% | 70% | 40% | 90% | 100% | 50% | 30% | 100% | 100% | 50%
5 | CCOC(=O)C(Cl)COC(=O)c1cc(-n2c(=O)n(C)c(=S)n(C)c2=O)c(F)cc1Cl (stereo not drawn) [Compound 1-675, (2-Chloro-3-ethoxy-3-oxo-propyl) 2-chloro-5-(3,5-dimethyl-2,6-dioxo-4-thioxo-1,3,5-triazinan-1-yl)-4-fluoro-benzoate] | 80% | 100% | 90% | 100% | 90% | 40% | 90% | 80% | 90% | 100% | 90% | 90% | 100% | 80% | 100%
6 | CCOC(=O)CC1(NC(=O)c2cc(-n3c(=O)n(C)c(=S)n(C)c3=O)c(F)cc2Cl)CC1 [Compound 1-744, Ethyl 2-[1-[[2-chloro-5-(3,5-dimethyl-2,6-dioxo-4-thioxo-1,3,5-triazinan-1-yl)-4-fluoro-benzoyl]amino]cyclopropyl]acetate] | 70% | 80% | 50% | 40% | 60% | 10% | 70% | 30% | 10% | 30% | 50% | 20% | 60% | 60% | 30%
